# Key:
# [1] = Inhibition of retinoblastoma susceptibility gene product phosphorylation in human MCF7 cells after 24 hrs
# [2] = target: 3-phosphoinositide-dependent protein kinase 1 (Homo sapiens) (UniProt O15530); assay: Inhibition of PDK1
IC50 [1],IC50 [2],SMILES
200 nM,,"CCCOc1cnc(CNC=C2C(=O)NC(=O)c3ccc(C(C)(C)C)cc32)cc1O [6-tert-Butyl-4-{[(4-hydroxy-5-propoxy-pyridin-2-ylmethyl)-amino]-methylene}-4H-isoquinoline-1,3-dione]"
370 nM,,"O=C1NC(=O)c2ccc(I)cc2C1=CNCc1ccn(-c2ccoc2)c(=O)c1 [(4Z)-4-[({[1-(3-Furyl)-2-oxo-1,2-dihydropyridin-4-yl]methyl}-amino)methylene]-6-iodoisoquinoline-1,3(2H,4H)-dione]"
610 nM,17 µM,"O=C1NC(=O)c2ccc(I)cc2C1=CNCc1ccc(-c2ccoc2)c(O)c1 [4-[(4-Furan-3-yl-3-hydroxy-benzylamino)-methylene]-6-iodo-4Hisoquinoline-1,3-dione]"
